Source: patent publication US20220280507A1, “USES OF 5-METHYLTETRAHYDROFOLATE AND ITS COMPOSITION” (Lianyungang Jinkang Hexin Pharmaceutical Co., Ltd., priority 2019, published 2022)
Where two headings read alike, the source gives them in different places.

Tests used:
[1] = test system: liver injury induced by carbon tetrachloride; conditions: serum day 61, n=6
Protocol: Experiment 3 Protection of 5-Methyltetrahydrofolate Calcium on Liver Injury Induced by Carbon Tetrachloride
30 SPF-grade SD rats were chosen in half female and half male and randomly divided into vehicle control group (vegetable oil), model control group (1.5 ml·kg−1, 20% carbon tetrachloride vegetable oil solvent, intraperitoneal injection every 3 days), 5-methyltetrahydrofolate calcium low-dose group (1mg·Kg−1), 5-methyltetrahydrofolate calcium medium-dose group (2 mg·Kg−1), and 5-methyltetrahydrofolate calcium high-dose group (4 mg·Kg−1) according to their body weight. 20% carbon tetrachloride vegetable oil solvent was used as the inducer, and intraperitoneal injection was performed every 3 days for a total of 60 days. After successful modeling, the administration groups were given a dosage of 5-methyltetrahydrofolate calcium as prescribed above for gavage once a day, and the model group and the normal control group were gavaged once daily with purified water for 60 consecutive days. Blood was taken on the 61st day, and the levels of ALT and AST in serum were detected.

[2] = test system: methanol metabolism in rats; conditions: n=5
Protocol: Experiment 10 Effects of Drinking and 5-Methyltetrahydrofolate on the Formate in the Urine of SD Rats
In order to study the effects of 5-methyltetrahydrofolate and ethanol on methanol metabolism in rats, SPF-grade female SD rats, fasted overnight, were divided into 4 groups: (1) ethanol group, with intragastric administration of ethanol at a dose of 1 g/kg respectively at 1, 2, 3 h, n=7; (2) control group, with intragastric administration of glucose at a dose of 1.6 g/kg (equivalent to alcohol calories) respectively at 1, 2, and 3 h, n=5; (3) 5-methyltetrahydrofolate group, with intragastric administration of 5-methyltetrahydrofolate calcium at a dose of 4 mg/kg at 0 h, followed by glucose at a dose of 1.6 g/kg (equivalent to alcohol calories) respectively at 1, 2, and 3 h, n=5; (4) 5-methyltetrahydrofolate alcohol group, with intragastric administration of 5-methyltetrahydrofolate calcium at a dose of 4 mg/kg at 0 h, followed by ethanol at a dose of 1 g/kg respectively at 1, 2, and 3 h, n=5.
Food grade alcohol was used, with a methanol content of less than 5 mg/L. Urine was collected, from 0 to 24 h, into a test tube containing 0.1 mL of thioethanol and stored at −70° C. The urine samples were divided into three parts, of which gas chromatographic method, fluorescence method and HPLC-DNPH derivative method were used to detect ethanol and methanol contents (see Table 16), formate content, and formaldehyde content (see Table 17) in urine, respectively.
The method for detecting formate is as follows: 0.1 mL of urine was mixed with 0.1 mL of 10 mmol/L NAD+, 0.1 mL of potassium phosphate buffer (pH 7.4, 20 mmol/L) and 50 μL of formate dehydrogenase, then 0.1 mL of diaphorase (4 U/mL), 50 μL of resazurin solution (0.2 mg/ml) and 0.5 ml of phosphate buffer (pH 6.00, 200 mmol/L) were added. The mixture was incubated at 37° C. for 5 min, then immersed in boiling water for 3 min, and then cooled to room temperature. Fluorescence spectrophotometry was used to determine the content of formate in the mixture, with an emission wavelength of 590 nm and an absorption wavelength of 565 nm.
The method for detecting formaldehyde is as follows: 0.1 ml of urine was taken and filtered through filtering membrane, 0.05 ml of 2,4-dinitrophenylhydrazine (DNPH, 0.1 g/L) and 0.25 ml of trifluoroacetic acid were added to it. The sample was vortexed for 30 s, centrifuged, […]. HPLC was used for analysis, with a detection wavelength of 355 nm, column temperature of 35° C., and mobile phase of 65% acetonitrile.

[3] = 1 mg·kg−1·d−1 gavage 60 d after CCl4 modeling
[4] = 2 mg·kg−1·d−1 gavage 60 d after CCl4 modeling
[5] = 4 mg·kg−1·d−1 gavage 60 d after CCl4 modeling
[6] = 5-methyltetrahydrofolate calcium 4 mg/kg ig at 0 h + ethanol 1 g/kg at 1, 2, 3 h
[7] = 5-methyltetrahydrofolate calcium 4 mg/kg ig at 0 h + glucose 1.6 g/kg at 1, 2, 3 h

Compound 5-methyltetrahydrofolate calcium has an ALT [1, 3] of 54.64 ± 20.52 IU/L, an AST [1, 3] of 185.73 ± 63.46 IU/L and an ALT [1, 4] of 50.54 ± 20.12 IU/L. It also gave an AST [1, 4] of 156.97 ± 50.35 IU/L, an ALT [1, 5] of 40.84 ± 16.31 IU/L and an AST [1, 5] of 125.87 ± 43.84 IU/L.
In the case of `CN1c2c([nH]c(N)nc2=O)NCC1CNc1ccc(C(=O)N[C@@H](CCC(=O)O)C(=O)O)cc1` (stereo partly drawn) [5-methyltetrahydrofolate, N-[4-[[(2-amino-1,4,5,6,7,8-hexahydro-4-oxo-5-methyl-(6S), -(6R), and (6R,S)-pteridyl)methyl)amino)toluoyl-glutamic acid], the “Ethanol content in urine, 3 h” value [2, 6] is reported as 11.6 ± 1.3 mg/L, the “Formaldehyde content in urine, 3 h” value [2, 6] is reported as 0.8 ± 0.4 mg/L and the “Formate content in urine, 3 h” value [2, 6] is reported as 241 ± 42 mg/L. The “Methanol content in urine, 3 h” value [2, 6] was 1.6 ± 0.3 mg/L, the “Ethanol content in urine, 4 h” value [2, 6] was 25.2 ± 2.2 mg/L and the “Formaldehyde content in urine, 4 h” value [2, 6] was 1.7 ± 0.6 mg/L. For the same compound, the “Formate content in urine, 4 h” value [2, 6] was 255 ± 30 mg/L, the “Methanol content in urine, 4 h” value [2, 6] was 2.5 ± 0.4 mg/L and the “Ethanol content in urine, 8 h” value [2, 6] was 24.1 ± 2.3 mg/L. The “Formaldehyde content in urine, 8 h” value [2, 6] was 2.9 ± 1.2 mg/L, the “Formate content in urine, 8 h” value [2, 6] was 345 ± 43 mg/L and the “Methanol content in urine, 8 h” value [2, 6] was 6.4 ± 1.0 mg/L. For the same compound, the “Ethanol content in urine, 12 h” value [2, 6] was 11.8 ± 2.0 mg/L, the “Formaldehyde content in urine, 12 h” value [2, 6] was 3.1 ± 1.0 mg/L and the “Formate content in urine, 12 h” value [2, 6] was 351 ± 45 mg/L. For the same compound, the “Methanol content in urine, 12 h” value [2, 6] was 4.4 ± 0.9 mg/L, the “Ethanol content in urine, 16 h” value [2, 6] was 4.3 ± 0.8 mg/L and the “Formaldehyde content in urine, 16 h” value [2, 6] was 1.9 ± 0.9 mg/L. For the same compound, the “Formate content in urine, 16 h” value [2, 6] was 247 ± 48 mg/L, the “Methanol content in urine, 16 h” value [2, 6] was 3.7 ± 0.9 mg/L and the “Ethanol content in urine, 24 h” value [2, 6] was 1.7 ± 0.7 mg/L. The “Formaldehyde content in urine, 24 h” value [2, 6] was 1.0 ± 0.5 mg/L, the “Formate content in urine, 24 h” value [2, 6] was 211 ± 39 mg/L and the “Methanol content in urine, 24 h” value [2, 6] was 1.9 ± 0.7 mg/L. The “Ethanol content in urine, 3 h” value [2, 7] was 0.6 ± 0.4 mg/L, the “Formaldehyde content in urine, 3 h” value [2, 7] was 0.8 ± 0.4 mg/L and the “Formate content in urine, 3 h” value [2, 7] was 215 ± 33 mg/L. The “Methanol content in urine, 3 h” value [2, 7] was 1.0 ± 0.3 mg/L, the “Ethanol content in urine, 4 h” value [2, 7] was 0.8 ± 0.5 mg/L and the “Formaldehyde content in urine, 4 h” value [2, 7] was 0.8 ± 0.5 mg/L. For the same compound, the “Formate content in urine, 4 h” value [2, 7] was 237 ± 42 mg/L, the “Methanol content in urine, 4 h” value [2, 7] was 1.1 ± 0.4 mg/L and the “Ethanol content in urine, 8 h” value [2, 7] was 1.5 ± 0.4 mg/L. The “Formaldehyde content in urine, 8 h” value [2, 7] was 0.7 ± 0.4 mg/L, the “Formate content in urine, 8 h” value [2, 7] was 198 ± 36 mg/L and the “Methanol content in urine, 8 h” value [2, 7] was 1.2 ± 0.4 mg/L. The “Ethanol content in urine, 12 h” value [2, 7] was 1.5 ± 0.3 mg/L, the “Formaldehyde content in urine, 12 h” value [2, 7] was 0.8 ± 0.3 mg/L and the “Formate content in urine, 12 h” value [2, 7] was 187 ± 32 mg/L. For the same compound, the “Methanol content in urine, 12 h” value [2, 7] was 1.1 ± 0.4 mg/L, the “Ethanol content in urine, 16 h” value [2, 7] was 1.7 ± 0.5 mg/L and the “Formaldehyde content in urine, 16 h” value [2, 7] was 0.8 ± 0.5 mg/L. For the same compound, the “Formate content in urine, 16 h” value [2, 7] was 190 ± 41 mg/L, the “Methanol content in urine, 16 h” value [2, 7] was 1.3 ± 0.5 mg/L and the “Ethanol content in urine, 24 h” value [2, 7] was 1.6 ± 0.4 mg/L. The “Formaldehyde content in urine, 24 h” value [2, 7] was 0.8 ± 0.4 mg/L, the “Formate content in urine, 24 h” value [2, 7] was 188 ± 36 mg/L and the “Methanol content in urine, 24 h” value [2, 7] was 1.1 ± 0.3 mg/L.
